The values that follow come from patent US6752986B2, “Composition and methods for affecting metallocorrinoid uptake” (The Cleveland Clinic Foundation, priority 2001, dated 2004).

Assay [1] has as its system five human hematological and eight solid tumor cell lines. To be noted: cited from earlier work.
The subject of assay [2] is NIH-OVCAR-3 ovarian carcinoma. Put plainly: SRB anti-proliferative cell survival assay, NIH-OVCAR-3. The settings on record: concentration used in the Annexin V assay for 48 hrs. It is filed as cell-based, human.
The subject of assay [3] is WM9 human melanoma. In words: SRB anti-proliferative cell survival assay, WM9. It is filed as cell-based. To be noted: WM9 versus NIH-OVCAR-3. The method, then:
WM9 human melanoma was evaluated after 4 days growth.
Cells (2×10^3) were seeded in 96-well plates. Data points represent mean of eight replicates. (n=8). A control plate was fixed 4 hr after seeding (to allow cells to attach) to determine the initial seeding density (Aini). This was defined as 0% growth. To the wells of the seeded experimental plate, IFN-β was added and incubation continued for 3-5 days. Untreated cell controls were included. Growth obtained with this control was defined as 100% (Afin). To determine cell number, cells were fixed with 10% trichloroacetic acid at 4° C. for 1 h. They were stained with 0.4% sulforhodamine B prepared in 1% acetic acid at 25° C. for 1 h (27). The wells were washed with 1% acetic acid. Bound dye was eluted with 100 μl of 10 mM Tris-HCl, ph 10.5 and quantitated in a microplate reader at 570 nm. Growth in IFN-β-treated wells (experimental=exp) was expressed as a percentage of untreated control growth (mean±SEM).
%Control growth=100%×(Aexp−Aini)/(Afin−Aini)
%STD=100%×(STDexp/(Afin−Aini))
%SEM=100%×(SEMexp/(Afin−Aini) ) where SEM=STD/✓n

The subject of assay [4] is subcutaneous NIH-OVCAR-3 tumors. Put plainly: Intraperitoneal NO-Cbl treatment of established subcutaneous NIH-OVCAR-3 tumors. Type of assay: in vivo, nude mice.
Assay [5] deals with CCRF-CEM. To be noted: high levels of Cbl; cited from earlier work.
Assay [6] deals with NCTC929. To be noted: NCTC929, high levels of Cbl; cited from earlier work.
The subject of assay [7] is L1210. To be noted: L1210, high levels of Cbl; cited from earlier work.
For assay [8], the system named is P388D1. The settings on record: P388D1, high levels of Cbl; cited from earlier work.

As to Nitrosylcobalamin [NO-Cbl], the “ID50 lower in tumor cell lines compared to benign cells (fibroblasts and endothelial cells)” value in assay [1] is listed as 5-100 fold. In assay [2], this compound came in with an ID25 of 10 µM. The “ID50 of WM9 cells compared to NIH-OVCAR-3” value in assay [3] is given as “higher ID50”. Moreover, the “mean volume of untreated tumors compared to NO-Cbl treated tumors” value in assay [4] (at the end of the study) came out at 18 fold. In assay [4] (during the treatment period), the “decrease in volume of treated tumors” value stood at 4 fold. Also, the tumor response entry in assay [4] (intraperitoneal NO-Cbl, established subcutaneous NIH-OVCAR-3 tumors) was “tumor regression”.
With `C/C1=C2/[N-][C@H]([C@H](CC(N)=O)[C@@]2(C)CCC(=O)NC[C@@H](C)OP(=O)([O-])O[C@H]2[C@@H](O)[C@@H](n3cnc4cc(C)c(C)cc43)O[C@@H]2CO)[C@]2(C)N=C(/C(C)=C3N=C(/C=C4N=C1[C@@H](CCC(N)=O)C\4(C)C)[C@@H](CCC(N)=O)[C@]\3(C)CC(N)=O)[C@@H](CCC(N)=O)[C@]2(C)CC(N)=O.[Co]` [Cbl, cobalamin], the cell proliferation result in assay [5], in assay [6], in assay [7] and in assay [8] was “inhibited” in each case.
